Results taken from patent publication US9822115B2, “Nitrogen containing compounds and their use as antibacterial agents” (WOCKHARDT LIMITED, priority 2014, dated 2017).
Values after ≈ are worked out from the molar mass of the structure shown. Structures can show the parent of a compound that is named as a salt. Where two headings read alike, the source gives them in different places.

Assays:
[1] = target: T1, Class D beta-lactamase, A. baumannii NCTC 13301 (OXA 23) (Acinetobacter baumannii, UniProt Q9L4P2); test: Beta-lactamase enzyme inhibition (nitrocefin, crude enzyme); type: biochemical
T1 construct: preincubated mixture of crude enzyme and the agents; endogenous in cells; host or cells: A. baumannii NCTC 13301
Protocol: (§1) Determination of enzyme inhibition activity: Concentration of the inhibitor required to inhibit 50% of enzymatic activity was measured by adding a chromogenic substrate, Nitrocefin (100 uM, 5 min) to the preincubated mixture of crude enzyme and the agents (37° C., 10 min). Absorbance was measured at 485 nm by UV-spectrophotometer. The IC50 was calculated by plotting absorbance against concentration through Sigmoidal dose response curve using Graph Pad software.
(§2) The enzyme inhibition was expressed as IC50.

[2] = test system: K. pneomoniae S48 (NDM, SHV, TEM); test: Antibacterial activity, MIC by agar dilution (CLSI); type: cell-based, K. pneumoniae; details: Klebsiella pneumoniae
Protocol: (§3) The biological activity of representative compounds according to the invention against various bacterial strains was investigated. In a typical study, overnight grown bacterial cultures were diluted appropriately and inoculated on the agar media containing doubling dilutions of the test compounds. Observations for growth or no growth was performed after 16-20 hours of incubation at 35±2° C. in the ambient air. The overall procedure was performed as per Clinical and Laboratory Standards Institute (CLSI) recommendations, (Clinical and Laboratory Standards Institute (CLSI), Performance Standards for Antimicrobial Susceptibility Testing, 20th Informational Supplement, M07-A9, Volume 32, No. 2, 2012). Molten Mueller Hinton Agar (BD, USA) containing serial dilutions of each antibacterial agent were poured on to the plates and allowed to solidify. Appropriate suspensions from the freshly grown cultures were prepared in normal saline so that about 10^4 CFU/spot of the organism was delivered on to the drug containing agar plates using automated multipoint inoculator (Mast, UK). The plates were incubated in Biochemical oxygen demand (BOD) incubator at 37° C. for 18 hours and then examined for growth.
(§4) The strains selected for study included E. coli NCTC 13353 producing CTX-M15 and OXA-1 beta-lactamase enzymes; K. pneumoniae H521 producing KPC, SHV, TEM beta-lactamase enzymes; and K. pneumoniae S48 producing NDM, SHV, TEM beta-lactamase enzymes. The activities are expressed as Minimum Inhibitory Concentrations (MICs) (mcg/ml).

[3] = test system: E. coli NCTC 13353 (CTX-M15, OXA-1); test: as above; type: cell-based; details: Escherichia coli
Protocol: as §3
as §4, with “Table 2 details the antibacterial activity of representative compounds according to invention, against various Multi Drug Resistant (MDR) Gram-negative bacterial strains. The strains” for “The strains”

[4] = test system: K. pneumoniae H521 (KPC, SHV, TEM); test: as above; type: cell-based; details: Klebsiella pneumoniae
Protocol: as §3, §4

[5] = target: T2, Class A beta-lactamase, K. pneumoniae ATCC 700603 (SHV 18) (Klebsiella pneumoniae, UniProt P0AD64, E235K/G234A/R39S); test: biochemical
T2 construct: preincubated mixture of crude enzyme and the agents; endogenous in cells; host or cells: K. pneumoniae ATCC 700603
Protocol: as §1, §2

[6] = Class D A. baumannii NCTC 13301 (OXA 23), read-out: Beta-lactamase enzyme inhibition IC50
[7] = 18 h, Table 2, K. pneomoniae S48 (NDM, SHV, TEM), read-out: MIC
[8] = NCTC13353, 18 h, Table 2, E. Coli NCTC 13353 (CTX-M15, OXA-1), read-out: MIC
[9] = 18 h, Table 2, K. pneumoniae H521 (KPC, SHV, TEM), read-out: MIC
[10] = Table 2, K. pneomoniae S48 (NDM, SHV, TEM), read-out: MIC
[11] = NCTC13353, Table 2, E. Coli NCTC 13353 (CTX-M15, OXA-1), read-out: MIC
[12] = Table 2, K. pneumoniae H521 (KPC, SHV, TEM), read-out: MIC

T2 sequence (P0AD64 22-286 R39S/G234A/E235K): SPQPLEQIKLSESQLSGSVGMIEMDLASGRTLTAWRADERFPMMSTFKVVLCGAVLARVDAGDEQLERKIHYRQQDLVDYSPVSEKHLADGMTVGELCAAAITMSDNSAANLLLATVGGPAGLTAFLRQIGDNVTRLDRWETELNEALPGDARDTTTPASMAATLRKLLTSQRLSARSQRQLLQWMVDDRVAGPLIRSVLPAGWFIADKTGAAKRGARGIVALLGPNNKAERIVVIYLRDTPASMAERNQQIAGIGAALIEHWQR
T1 sequence (Q9L4P2 18-273): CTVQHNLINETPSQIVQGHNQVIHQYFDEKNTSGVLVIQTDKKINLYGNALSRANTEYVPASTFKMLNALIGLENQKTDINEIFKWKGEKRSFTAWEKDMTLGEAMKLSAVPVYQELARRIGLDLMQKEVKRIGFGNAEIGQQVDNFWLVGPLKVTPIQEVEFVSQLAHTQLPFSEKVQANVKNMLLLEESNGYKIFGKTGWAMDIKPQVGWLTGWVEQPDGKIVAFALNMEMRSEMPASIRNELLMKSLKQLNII

## O=C(CCCc1ccccc1)NNC(=O)[C@@H]1CC[C@@H]2CN1C(=O)N2OS(=O)(=O)O [Example 6, sodium salt of (2S,5R)-sulfuric acid mono-[2-(N′-(4-phenyl-butanoyl)-hydrazinocarbonyl)-7-oxo-1,6-diaza-bicylo[3.2.1]oct-6-yl]ester]
[1]; [6]
  IC50: 0.207 µM
[2]; [7]
  MIC: 32 µg/mL
[3]; [8]
  MIC: 16 µg/mL
[4]; [9]
  MIC: > 32 µg/mL

## CC(C)(C)OC(=O)CC(=O)Oc1ccc(CC(=O)NNC(=O)[C@@H]2CC[C@@H]3CN2C(=O)N3OS(=O)(=O)O)cc1 [Example 26, sodium salt of (2S,5R)-malonic acid tert-butyl ester 4-{2-oxo-2-[N′-(7-oxo-6-sulphooxy-1,6-diaza-bicyclo[3.2.1]octane-2-carbonyl)-hydrazino]ethyl}-phenyl ester]
[5]
  IC50: 0.025 µM
[1]; [6]
  IC50: 0.37 µM
[2]; [7]
  MIC: 2 µg/mL
[3]; [8]
  MIC: 2 µg/mL
[4]; [9]
  MIC: 4 µg/mL

## O=C(Cc1ccccc1)NNC(=O)[C@@H]1CC[C@@H]2CN1C(=O)N2OS(=O)(=O)O [Example 4]
[5]
  IC50: 0.019 µM
[1]; [6]
  IC50: 0.416 µM
[2]; 18 h
  MIC: 2 µg/mL (≈ 5.02 µM)
[3]; NCTC13353, 18 h
  MIC: 1 µg/mL (≈ 2.51 µM)
[4]; 18 h
  MIC: > 32 µg/mL

## CCOc1ccccc1CC(=O)NNC(=O)[C@@H]1CC[C@@H]2CN1C(=O)N2OS(=O)(=O)O [Example 15, sodium salt of (2S,5R)-sulfuric acid mono-[2-(N′-(2-ethoxyphenyl-acetyl)-hydrazinocarbonyl)-7-oxo-1,6-diaza-bicyclo[3.2.1]oct-6-yl]ester]
[5]
  IC50: 0.049 µM
[1]; [6]
  IC50: 0.21 µM
[2]; [7]
  MIC: > 32 µg/mL
[3]; [8]
  MIC: > 32 µg/mL
[4]; [9]
  MIC: > 32 µg/mL

## O=C(Cc1cccc(O)c1)NNC(=O)[C@@H]1CC[C@@H]2CN1C(=O)N2OS(=O)(=O)O [Example 20, sodium salt of (2S,5R)-sulfuric acid mono-[2-(N′-(3-hydroxyphenyl-acetyl)-hydrazinocarbonyl)-7-oxo-1,6-diaza-bicyclo[3.2.1]oct-6-yl]ester]
[5]
  IC50: 0.012 µM
[1]; [6]
  IC50: 0.249 µM
[2]; 18 h
  MIC: 0.5 µg/mL
[3]; NCTC13353, 18 h
  MIC: 0.5 µg/mL
[4]; 18 h
  MIC: 1 µg/mL

## COc1ccc(CC(=O)NNC(=O)[C@@H]2CC[C@@H]3CN2C(=O)N3OS(=O)(=O)O)cc1 [Example 14, sodium salt of (2S,5R)-sulfuric acid mono-[2-(N′-(4-methoxyphenyl-acetyl)-hydrazinocarbonyl)-7-oxo-1,6-diaza-bicyclo[3.2.1]oct-6-yl]ester]
[1]; [6]
  IC50: 0.105 µM
[2]; [7]
  MIC: 1 µg/mL
[3]; [8]
  MIC: 1 µg/mL
[4]; [9]
  MIC: 8 µg/mL

## O=C(Cc1ccc(O[C@H]2CCNC2)cc1)NNC(=O)[C@@H]1CC[C@@H]2CN1C(=O)N2OS(=O)(=O)O [Example 64]
[5]
  IC50: 0.047 µM
[1]; [6]
  IC50: 0.432 µM
[2]; [10]
  MIC: 0.5 µg/mL (≈ 1.03 µM)
[3]; [11]
  MIC: 0.5 µg/mL (≈ 1.03 µM)
[4]; [12]
  MIC: 1 µg/mL (≈ 2.07 µM)

## O=C(Cc1ccccc1O)NNC(=O)[C@@H]1CC[C@@H]2CN1C(=O)N2OS(=O)(=O)O [Example 19, sodium salt of (2S,5R)-sulfuric acid mono-[2-(N′-(2-hydroxyphenyl-acetyl)-hydrazinocarbonyl)-7-oxo-1,6-diaza-bicyclo[3.2.1]oct-6-yl]ester]
[5]
  IC50: 0.013 µM
[1]; [6]
  IC50: 0.677 µM
[2]; [7]
  MIC: 2 µg/mL
[3]; [8]
  MIC: 1 µg/mL
[4]; [9]
  MIC: 2 µg/mL

## O=C(Cc1ccc(OC(=O)NC2CCCCC2)cc1)NNC(=O)[C@@H]1CC[C@@H]2CN1C(=O)N2OS(=O)(=O)O [Example 28, sodium salt of (2S,5R)-cyclohexyl-carbamic acid 4-{2-oxo-2-[N′-(7-oxo-6-sulphooxy-1,6-diaza-bicyclo[3.2.1]octane-2-carbonyl)-hydrazino]ethyl}-phenyl ester]
[5]
  IC50: 0.008 µM
[1]
  IC50: 0.243 µM
[2]; 18 h
  MIC: 16 µg/mL
[3]; NCTC13353, 18 h
  MIC: 8 µg/mL
[4]; 18 h
  MIC: 32 µg/mL

## O=C(Cc1ccc(O)cc1F)NNC(=O)[C@@H]1CC[C@@H]2CN1C(=O)N2OS(=O)(=O)O [Example 18, sodium salt of (2S,5R)-sulfuric acid mono-[2-(N′-(2-fluoro-4-hydroxyphenyl-acetyl)-hydrazinocarbonyl)-7-oxo-1,6-diaza-bicyclo[3.2.1]oct-6-yl]ester]
[5]
  IC50: 0.154 µM
[1]; [6]
  IC50: 0.146 µM
[2]; [7]
  MIC: 0.5 µg/mL
[3]; [8]
  MIC: 0.5 µg/mL
[4]; [9]
  MIC: 2 µg/mL

## O=C(Cc1ccc(Cl)cc1)NNC(=O)[C@@H]1CC[C@@H]2CN1C(=O)N2OS(=O)(=O)O [Example 9, sodium salt of (2S,5R)-sulfuric acid mono-[2-(N′-(4-chlorophenyl-acetyl)-hydrazinocarbonyl)-7-oxo-1,6-diaza-bicyclo[3.2.1]oct-6-yl]ester]
[1]; [6]
  IC50: 0.173 µM
[2]; 18 h
  MIC: 1 µg/mL
[3]; NCTC13353, 18 h
  MIC: 1 µg/mL
[4]; 18 h
  MIC: 4 µg/mL

## O=C(Cc1ccccn1)NNC(=O)[C@@H]1CC[C@@H]2CN1C(=O)N2OS(=O)(=O)O [Example 8, Sodium salt of (2S,5R)-Sulfuric acid mono-[2-(N′-(pyridine-2-yl-acetyl)-hydrazinocarbonyl)-7-oxo-1,6-diaza-bicyclo[3.2.1]oct-6-yl] ester]
[5]
  IC50: 0.025 µM
[1]; [6]
  IC50: 0.466 µM
[2]; [10]
  MIC: 0.5 µg/mL
[3]; [11]
  MIC: 0.5 µg/mL
[4]; [12]
  MIC: 2 µg/mL

## N#Cc1ccc(CC(=O)NNC(=O)[C@@H]2CC[C@@H]3CN2C(=O)N3OS(=O)(=O)O)cc1 [Example 10, sodium salt of (2S,5R)-sulfuric acid mono-[2-(N′-(4-cyanophenyl-acetyl)-hydrazinocarbonyl)-7-oxo-1,6-diaza-bicyclo[3.2.1]oct-6-yl]ester]
[5]
  IC50: 0.162 µM
[1]; [6]
  IC50: 0.805 µM
[2]; [7]
  MIC: 1 µg/mL
[3]; [8]
  MIC: 1 µg/mL
[4]; [9]
  MIC: 4 µg/mL

## NC(=O)[C@@H]1CC[C@@H]2CN1C(=O)N2OS(=O)(=O)O [Avibactam, avibactam, reference compound]
[5]
  IC50: 0.098 µM

## CNCCOc1cccc(CC(=O)NNC(=O)[C@@H]2CC[C@@H]3CN2C(=O)N3OS(=O)(=O)O)c1 [Example 37, (2S,5R)-sulfuric acid mono-[2-(N′-{2-[3-(2-N-methylamino-ethoxy)-phenyl]-acetyl}-hydrazinocarbonyl)-7-oxo-1,6-diaza-bicyclo[3.2.1]oct-6-yl]ester]
[5]
  IC50: 0.036 µM
[1]; [6]
  IC50: 0.938 µM
[2]; [7]
  MIC: 0.5 µg/mL (≈ 1.06 µM)
[3]; [8]
  MIC: 0.5 µg/mL (≈ 1.06 µM)
[4]; [9]
  MIC: 1 µg/mL (≈ 2.12 µM)

## CC(C)[C@H](NC(=O)Oc1ccc(CC(=O)NNC(=O)[C@@H]2CC[C@@H]3CN2C(=O)N3OS(=O)(=O)O)cc1)C(=O)OC(C)(C)C [Example 29, sodium salt of (S)-3-methyl-2-(4-{2-oxo-2-[N′-((2S,5R)-7-oxo-6-sulphooxy-1,6-diaza-bicyclo[3.2.1]-octane-2-carbonyl)-hydrazino]-ethyl}-phenoxycarbonylamino)-butyric acid tert-butyl ester]
[5]
  IC50: 0.327 µM
[1]
  IC50: 2.85 µM
[2]
  MIC: 4 µg/mL
[3]; NCTC13353
  MIC: 4 µg/mL
[4]
  MIC: 16 µg/mL

## CC(C)(C)C(=O)Oc1ccc(CC(=O)NNC(=O)[C@@H]2CC[C@@H]3CN2C(=O)N3OS(=O)(=O)O)cc1 [Example 22, sodium salt of 2,2-dimethyl-propionic acid 4-{2-oxo-2-[N′-((2S,5R)-7-oxo-6-sulphooxy-1,6-diaza-bicyclo[3.2.1]octane-2-carbonyl)-hydrazino]ethyl}-phenyl ester]
[5]
  IC50: 0.025 µM
[1]; [6]
  IC50: 0.973 µM
[2]; [7]
  MIC: 32 µg/mL
[3]; [8]
  MIC: 16 µg/mL
[4]; [9]
  MIC: 32 µg/mL
